A short description of experiment [1]: growth inhibition of apl2Δ yeast, dose response, selectivity assay for post-Golgi transport modulator project, S. cerevisiae, secondary screen, background strain comparison (AID 789). The note with it: for IC50: S. cerevisiae background (wild-type parent) strain growth inhibition; for growth inhibition: S. cerevisiae apl2Δ mutant growth inhibition, at 25 µM (top of the series).

The subject of experiment [2] is S. cerevisiae apl2Δ mutant growth inhibition. The description is as above.

Active and inactive are the calls of the source. The rule behind the calls is not given here.

As usually defined, the IC50 is the concentration that gives 50% inhibition. As for `Cn1c2ccc(Cl)cc2c2nc3ccccc3nc21`, the IC50 in experiment [1] was more than 10 µM; in experiment [2], > 10 µM (inactive). The matching figures for `CCOC(=O)c1c(-n2c(C)cc(C=C3C(=O)NC(=S)NC3=O)c2C)sc2c1CCCC2`: 11.5 µM and > 10 µM (inactive). `CCOC(=O)C(NC(C)=O)(Nc1ccc(S(=O)(=O)Nc2onc(C)c2C)cc1)C(F)(F)F` (stereo unspecified): the half-inhibitory concentration (IC50) in experiment [1] was more than 10 µM; in experiment [2], > 10 µM (inactive). `COc1ccccc1N1CCN(CC(O)c2ccc3cc[nH]c3c2)CC1` (stereo unspecified): the IC50 is more than 10 µM in experiment [1] and > 10 µM (inactive) in experiment [2]. Consider `CC1CCN(S(=O)(=O)c2ccc(NC(=O)CCN3C(=O)c4ccccc4C3=O)cc2)CC1`, for which, in experiment [2], the IC50 was > 10 µM (inactive). `O=S1(=O)C=C(Sc2nnc(-c3ccccc3)o2)c2ccccc21`: the IC50 in experiment [2] is > 10 µM (inactive). As to `O=C(Nc1nnc(-c2ccc3c(c2)CCCC3)o1)c1ccc(Cl)cc1Cl`, the IC50 in experiment [1] was 3.46 µM; in experiment [2], > 10 µM (inactive). The matching figures for `CCCCC1(CCCC)C(=O)NC(=Nc2cccc(C)c2)NC1=O`: more than 10 µM and > 10 µM (inactive). For `O=C(CC(=O)c1cc(Cl)ccc1O)c1ccccc1`, in experiment [1], the IC50 came to 12.7 µM. Consider `O=C(C1COc2ccccc2O1)N1CCN(Cc2ccc3c(c2)OCO3)CC1` (stereo unspecified), for which the results for the IC50 in experiment [1] and in experiment [2] were more than 10 µM and > 10 µM (inactive), respectively. For `Cc1ccc(S(=O)(=O)N2CC3CC(C2)c2cccc(=O)n2C3)cc1` (stereo unspecified) the same measures were more than 10 µM and > 10 µM (inactive).

On to `Cc1ccc(CN2CCN(/N=C/c3cc(Br)ccc3O)CC2)cc1`, for which the figures for the 50% inhibitory concentration (IC50) in experiment [1] and in experiment [2] were more than 10 µM and > 10 µM (inactive), respectively. The matching figures for `CCOC(=O)C1CCN(Cc2cnc(Oc3ccc(Cl)cc3C)s2)CC1`: more than 10 µM and > 10 µM (inactive).

With `Cc1ccc(S(=O)(=O)c2c(C)nn(C(C)(C)C)c2OC(=O)c2ccc(Br)o2)cc1`, the concentration for half-maximal inhibition (IC50) in experiment [1] was more than 10 µM; in experiment [2], > 10 µM (inactive). With `COc1ccc(NC(=O)c2ccc(CN3CCN(c4ccccc4)CC3)cc2)cc1`, the IC50 in experiment [1] is more than 10 µM; in experiment [2], > 10 µM (inactive).

With `O=C(OCn1ncc(Br)c(Br)c1=O)c1ccc(F)cc1`, the half-maximal inhibitory concentration (IC50) in experiment [1] was 5.38 µM; in experiment [2], > 10 µM (inactive).

As for `O=C(C1CCN(S(=O)(=O)c2cccs2)CC1)N1CCCCCC1`, the IC50 was more than 10 µM in experiment [1] and > 10 µM (inactive) in experiment [2]. Consider `Cc1[nH]nc(N=CC2=C(O)CC(C)(C)CC2=O)c1-c1ccc(Cl)cc1`, for which the IC50 in experiment [2] is > 10 µM (inactive).

For `Cc1cc(OCC(F)(F)C(F)(F)C(F)(F)C(F)(F)C(F)(F)C(F)F)nc(N)n1`, the IC50 is more than 10 µM in experiment [1] and > 10 µM (inactive) in experiment [2].

In the case of `O=C(Nc1nnc(-c2ccc(Cl)cc2)o1)c1ccccc1Br`, the IC50 was 13.1 µM in experiment [1] and > 10 µM (inactive) in experiment [2]. As to `O=C(Nc1nnc(C2CC2)o1)c1ccc(S(=O)(=O)N2CCCc3ccccc32)cc1`, in experiment [1], the growth inhibition is 30.1% (inactive) and the IC50 amounted to 3.17 µM.

With `CCc1n[nH]c2c1/C(=N\O)CC(C)(C)C2`, the concentration for half-maximal inhibition (IC50) is more than 10 µM in experiment [1] and > 10 µM (inactive) in experiment [2]. The matching figures for `COc1ccc(N2CCN(C(=O)CCNS(=O)(=O)c3ccc(Br)s3)CC2)cc1`: more than 10 µM and > 10 µM (inactive). As to `CC(Sc1ccsc1[N+](=O)[O-])C(=O)NCCc1ccc(Cl)cc1` (stereo unspecified), in experiment [2], the IC50 is > 10 µM (inactive). On the same count and under the same terms, then `CC(c1nnc(SCn2nnc3ccccc3c2=O)n1-c1ccc(Cl)cc1)N(C)C` (stereo unspecified), with > 10 µM (inactive). Turning to `CCOC(=O)c1c(CN2CCCCC2C)oc2ccc(OC)cc12` (stereo unspecified), the figures for the IC50 in experiment [1] and in experiment [2] were more than 10 µM and > 10 µM (inactive), respectively. Consider `CC(C)Cc1[nH]c(=O)c(C#N)c2c1CCC2`, for which the IC50 was more than 10 µM in experiment [1] and > 10 µM (inactive) in experiment [2]. The matching figures for `Cc1cc(O)c(/C=N/Nc2ccc(Cl)cc2)c(=O)o1`: 4.69 µM and 9.39 µM (inactive). The matching figures for `COc1ccc2oc(=O)c(-c3nnc(NCc4ccco4)s3)cc2c1`: more than 10 µM and > 10 µM (inactive).

As to `Cc1ccc(C2N(c3ccc(Cl)c(Cl)c3)C(=O)C3CCCN32)o1` (stereo unspecified), the results for the IC50 in experiment [1] and in experiment [2] were more than 10 µM and > 10 µM (inactive), respectively. For `CCCCS(=O)(=O)/C=C\C=C/S(=O)(=O)CCCC` the same measures were 13.9 µM and 19.8 µM (inactive). `O=C1C=C(c2ccccc2)C(=O)N1Nc1ccccc1`: the IC50 in experiment [2] was > 10 µM (inactive). In the case of `O=C(NC(C(=O)c1ccccc1)N1CCCCC1)c1ccccc1` (stereo unspecified), the figures for the IC50 in experiment [1] and in experiment [2] were more than 10 µM and > 10 µM (inactive), respectively. Regarding `CCCC(=O)Nc1ccc(Cl)c(NC(=O)c2cccnc2Cl)c1`, the IC50 was more than 10 µM in experiment [1] and > 10 µM (inactive) in experiment [2].

Take `O=C(C1CCCN(S(=O)(=O)c2ccc(Cl)cc2)C1)N(Cc1cccs1)C1CC1` (stereo unspecified): in experiment [2], the IC50 was > 10 µM (inactive). Take `O=C(NCCSCc1ccc(Cl)cc1Cl)c1ccc(CN2CCOCC2)cc1`: the IC50 is more than 10 µM in experiment [1] and > 10 µM (inactive) in experiment [2]. The matching figures for `CCC(C)(C)n1nnnc1C(c1cc2cc3c(cc2[nH]c1=O)OCO3)N1CCN(C)CC1` (stereo unspecified): more than 10 µM and > 10 µM (inactive). The matching figures for `CC1=CC(C)(C)Nc2ccc(OC(=O)CN3C(=O)c4cccc5cccc(c45)C3=O)cc21`: more than 10 µM and > 10 µM (inactive). `Clc1ccc(-c2n[nH]c3c2CCC3)c(Cl)c1`: the IC50 in experiment [1] is 0.518 µM; in experiment [2] it was 1.12 µM (inactive). For `COC(=O)C1=CN(CCCN2CCCC2=O)C=C(C(=O)OC)C1c1ccccc1C(F)(F)F` the same measures were more than 10 µM and > 10 µM (inactive). For `O=C(c1ccco1)N1CCN=C1SCc1cccnc1` the same measures were more than 10 µM and > 10 µM (inactive).

`CS(=O)(=O)N1CCC(C(=O)NCCN2CCN(Cc3ccccc3)CC2)CC1`: the IC50 is more than 10 µM in experiment [1] and > 10 µM (inactive) in experiment [2]. The matching figures for `NC(=O)c1c(NC(=O)CN2C(=O)CCC2=O)sc2c1CCCCC2`: more than 10 µM and > 10 µM (inactive).

Take `O=C(NCC(c1cccnc1)N1CCN(c2ccc(F)cc2)CC1)OCc1ccccc1` (stereo unspecified): the IC50 in experiment [2] is 23.4 µM. The same measure, in the same setting: then `CC12CCC(c3c(C(=O)Nc4nccs4)nn(-c4ccccc4)c31)C2(C)C` (stereo unspecified), with > 10 µM (inactive); and `N#Cc1ccccc1Cn1cc(C(=O)c2cccs2)c2ccccc21`, with > 10 µM (inactive). `CC(=O)c1ccc(N2CCN(C(=O)c3ccc(Br)cc3)CC2)c(F)c1`: the IC50 in experiment [1] was found to be 6.58 µM. As for `CCOC(=O)c1ccc(NC(=O)c2cn(-c3ccccc3)nc2-c2ccncc2)cc1`, in experiment [1], the growth inhibition was 18.6% (inactive) and the 50% inhibitory concentration (IC50) turned out to be 11.5 µM.

As to `N=c1c2c(-c3ccccc3)c(-c3ccccc3)n(Cc3ccco3)c2ncn1Cc1ccccc1`, in experiment [2], the IC50 was 20.9 µM. On to `CCCCCOc1ccc(CN2CCOCC2)cc1Cl`, for which the IC50 in experiment [1] is more than 10 µM. The same measure, in the same setting: in the case of `CCCCC(=O)Nc1nc(C)c(-c2csc(Nc3ccc(Cl)cc3)n2)s1` it was 6.26 µM. Turning to `O=S(=O)(Cc1ccccc1Cl)N1CCN(Cc2ccc3c(c2)OCO3)CC1`, the IC50 in experiment [2] is > 10 µM (inactive). With `O=C(OCn1ncc(Cl)c(Cl)c1=O)c1cccc(C(F)(F)F)c1`, in experiment [1], the half-inhibitory concentration (IC50) amounted to 3.51 µM. `CCOc1ccc(NC(=O)N(C2CCCCC2)C(C)c2cccnc2)cc1` (stereo unspecified): the IC50 in experiment [2] was 21.5 µM. On to `CC1CN(CCCCOc2ccc(C(C)C)cc2)CC(C)O1` (stereo unspecified), for which the IC50 in experiment [1] is more than 10 µM. With `O=C(N/N=C/c1ccc([N+](=O)[O-])o1)c1cc(-c2cccc(Br)c2)nc2ccccc12`, in experiment [1], the growth inhibition was 42.1% (inactive) and the IC50 turned out to be 4.65 µM. As to `O=C(OCn1ncc(Br)c(Br)c1=O)c1c(F)cccc1F`, the IC50 in experiment [2] is > 10 µM (inactive). Regarding `O=C1c2ccccc2C(=O)c2c1oc(C(F)(F)F)c2C(=O)c1ccccc1`, in experiment [1], the IC50 came to 2.2 µM. In the case of `C=CCc1ccc(OCCCCN2CC(C)OC(C)C2)c(OC)c1` (stereo unspecified), in experiment [1], the growth inhibition is 34.1% (inactive) and the half-maximal inhibitory concentration (IC50) was more than 10 µM. Consider `O=C(Nc1nnc(-c2cccs2)o1)c1cccc(C(F)(F)F)c1`, for which, in experiment [2], the IC50 is > 10 µM (inactive). As to `CCCCCCCCNc1ncnc2ccccc12`, in experiment [1], the IC50 turned out to be 14.8 µM. Take `O=C(OCn1ncc(Br)c(Br)c1=O)c1ccccc1Cl`: the IC50 in experiment [2] was > 10 µM (inactive).

On to `CCCCC(c1nnnn1Cc1ccco1)N1CCN(c2nc3ccccc3s2)CC1` (stereo unspecified), for which the IC50 in experiment [1] turned out to be 3.9 µM. `CC(C)c1ccc(C(=O)CSc2n[nH]c(-c3ccncc3)n2)cc1`: the IC50 in experiment [2] was 17 µM. Same read-out and setting: then `O=S1(=O)C=C(Sc2nc3ccccc3s2)c2ccccc21`, with > 10 µM (inactive). For `N[C@@H](Cc1c[nH]c2ccccc12)c1nnc(SCc2ccc(Cl)cc2)o1`, in experiment [1], the IC50 was 20.4 µM. Still for that read-out and setting: in the case of `Cc1ccc(OCC(O)CN2CCN(Cc3ccc4c(c3)OCO4)CC2)c(C)c1` (stereo unspecified) it was more than 10 µM. Consider `CCOc1nc(SCCOc2ccccc2)nc(N(C)C)n1`, for which, in experiment [2], the IC50 is > 10 µM (inactive).

For the molecule `O=C(CN1CCN(c2ccccn2)CC1)Nc1ccc(Oc2ccccc2)cc1`, the IC50 in experiment [2] is > 10 µM (inactive). `O=C(Nc1nnc(-c2ccccc2)o1)c1ccc(Cl)cc1`: in experiment [1], the growth inhibition was 40.8% (inactive) and the IC50 came out at 0.65 µM. In the case of `Cc1ccc(Cl)c(OCCCCN(C)Cc2ccccc2)c1`, the half-inhibitory concentration (IC50) in experiment [1] is more than 10 µM. `CC1CCC(C(C)C)C(OCC(O)CN2CCN(Cc3ccccc3)CC2)C1` (stereo unspecified): the IC50 in experiment [2] was 19.3 µM. On to `Cc1cccc(-c2nnc(-c3cccc(NC(=O)Cc4cccs4)c3)o2)c1`, for which the IC50 in experiment [1] is 15.2 µM.

Regarding `COc1ccc(OCCSc2nnc3sc4ccccc4n23)cc1`, the IC50 in experiment [2] was > 10 µM (inactive).

Consider `O=[N+]([O-])c1cc(Cl)cc(/C=N\Nc2ccccn2)c1O`, for which the IC50 in experiment [2] is > 10 µM (inactive). As for `O=C(Nc1ccccc1)C1=C(O)CC(c2ccco2)CC1=Nc1ccccc1` (stereo unspecified), the IC50 in experiment [1] was more than 10 µM. With `O=C(Nc1nnc(-c2ccc3c(c2)CCCC3)o1)c1ccccc1`, the IC50 in experiment [2] was > 10 µM (inactive).

Values taken from PubChem BioAssay AID789 (SRMLSC, 2007).
